Experimental data from US20080293820A1, “METHODS FOR IMPROVING PHYSICAL FUNCTION IN FIBROMYALGIA” (Cypress Bioscience, Inc., priority 2007, published 2008).
Counter-ions that a name gives are not always drawn.

System: patients who meet the 1990 ACR criteria for fibromyalgia syndrome
Assay: Example 2: multicenter, double-blind, randomized, placebo-controlled monotherapy study of milnacipran for treatment of fibromyalgia (1196 patients)
Format: in vivo, human
Parameters: Mean Change from Baseline in PFI SF-36 domain score / Mean Change from Baseline in ROLP SF-36 domain score / Mean Change from Baseline in PAIN SF-36 domain score / Mean Change from Baseline in GHP SF-36 domain score: scale not given here
Conditions: for time-weighted average (AUC) of SF-36 PCS Scores, Median / time-weighted average (AUC) of SF-36 PCS Scores, Mean: Visits Tx3-Tx15, intent to treat; for Composite Pain: number of responders / Composite Syndrome: number of responders / PGIC Component: number of responders / Pain Component: number of responders / SF36 PCS Component: number of responders: 200 mg (396); for time-weighted average (AUC) of SF-36 PCS Scores, Difference from Placebo / time-weighted average (AUC) of SF-36 PCS Scores, LS Mean: Tx3-Tx15, ANCOVA model
Description: The primary outcome was a composite responder analysis assessing response rates of two doses (100 mg/day and 200 mg/day) of milnacipran as compared with placebo at Visit Tx15 (week 15).
This was a multicenter, randomized, double-blind, placebo-controlled three-arm study designed which enrolled 1196 patients who meet the 1990 ACR criteria for fibromyalgia syndrome (history of widespread pain and pain in 11 of 18 tender point sites on digital palpation), as well as the more detailed admission criteria outlined in the protocol.
Patients were randomized to receive placebo, 100 mg/day milnacipran or 200 mg/day milnacipran in a ratio of 1:1:1 (placebo=401 patients, 100 mg/day=399 patients, 200 mg/day=396 patients). The patients assigned to the two active treatment arms received a total of 12 weeks of stable-dose milnacipran exposure after the 3 weeks of dosage escalation steps, for a total of 15 weeks of drug exposure. All randomized medications (placebo and milnacipran) were administered twice a day (BID).
The primary efficacy assessment of this study was a composite responder status defined by three domains of interest evaluated at visit Tx15. The domains measured were
1) pain (measured by an electronic diary in the morning as a daily recall pain score); 2) patient global (measured by the PGIC, 1-7 scale); 3) physical function (measured by the SF-36 PCS).
The secondary efficacy parameters were time-weighted average (AUC) of the weekly average PED morning recall pain scores for Weeks 4 through 15, PGIC, and SF-36 PCS for Visit Tx3 to Visit Tx15.
The physical function domain for response analysis was measured by the Physical Component Summary of SF-36 (SF-36 PCS). The SF-36 is a brief, well-established, self-administered patient questionnaire for the assessment of health status, functional status, and quality of life. The SF-36 measures eight domains of health status: physical functioning, role limitations due to physical problems, bodily pain, general health perceptions, energy/vitality, social functioning, role limitations due to emotional problems, and mental health. An SF-36 PCS score and a mental component summary (MCS) score can be calculated by combining and weighting the various individual scales. The PCS and MCS scores have been standardized to have a mean=50, SD=10 in the general healthy US population (see, e.g., Ware, J., M. Kosinski, and J. Dewey, How to Score Version 2 of the SF-36 Health Survey (Standard & Acute Forms). 3rd ed. 2000, Lincoln, R.I.: QualityMetric).
A patient was classified as a responder for the treatment of pain of fibromyalgia if he or she reached Visit Tx15 and satisfied the following criteria: • Greater than or equal to 30% in pain reduction from baseline; • PGIC rated as “much or very much improved,” (i.e., a score of 1 or 2 on the 1-7 scale at endpoint.)
A patient was classified as a responder for the treatment of FMS if he or she satisfied the responder criteria for the treatment of pain of fibromyalgia and the following additional criterion (at visit Tx15): • Improvement on the SF-36 PCS score from baseline by an amount at least equivalent to the minimal clinically important difference, as defined in the Statistical Analysis Plan.
Table 6 summarizes 3-month results for the Baseline Observation Carried Forward (BOCF), Last Observation Carried Forward (LOCF) and study completer (OC) populations. LOCF is an analysis in which observations are carried forward to the last time point for patients who dropped out. The LOCF analysis treats the carried-forward data as observed data at the last time point. BOCF is an analysis that requires that the patient remain active in the trial to be evaluated for response. If a patient withdrew from the trial for any reason, they were classified as a non-responder irregardless of their pain and global scores at the time of withdrawal. […]

CCN(CC)C(=O)C1(c2ccccc2)CC1CN (racemic) [milnacipran, Z-2-aminomethyl-1-phenyl-N,N-diethylcyclopropanecarboxamide hydrochloride]
time-weighted average (AUC) of SF-36 PCS Scores, Median (100 mg, OC): 432.8
Composite Pain: number of responders (3-months, BOCF): 98
Composite Syndrome: number of responders (3-months, BOCF): 55
PGIC Component: number of responders (3-months, BOCF): 129
Pain Component: number of responders (3-months, BOCF): 119
SF36 PCS Component: number of responders (3-months, BOCF): 89
Composite Pain: number of responders (3-months, LOCF): 117
Composite Syndrome: number of responders (3-months, LOCF): 65
PGIC Component: number of responders (3-months, LOCF): 151
Pain Component: number of responders (3-months, LOCF): 158
SF36 PCS Component: number of responders (3-months, LOCF): 109
Composite Pain: responder rate (200 mg, 3-months, BOCF): (24.75%)
Composite Pain: responder rate difference from placebo (unlabelled line) (200 mg, 3-months, BOCF): 8.29%
Composite Syndrome: responder rate (200 mg, 3-months, BOCF): (13.89%)
Composite Syndrome: responder rate difference from placebo (unlabelled line) (200 mg, 3-months, BOCF): 5.16%
PGIC Component: responder rate (200 mg, 3-months, BOCF): (32.58%)
PGIC Component: responder rate difference from placebo (unlabelled line) (200 mg, 3-months, BOCF): 9.64%
Pain Component: responder rate (200 mg, 3-months, BOCF): (30.05%)
Pain Component: responder rate difference from placebo (unlabelled line) (200 mg, 3-months, BOCF): 4.86%
SF36 PCS Component: responder rate (200 mg, 3-months, BOCF): (22.47%)
SF36 PCS Component: responder rate difference from placebo (unlabelled line) (200 mg, 3-months, BOCF): 1.02%
Composite Pain: responder rate (200 mg, 3-months, LOCF): (29.55%)
Composite Pain: responder rate difference from placebo (unlabelled line) (200 mg, 3-months, LOCF): 11.35%
Composite Syndrome: responder rate (200 mg, 3-months, LOCF): (16.41%)
Composite Syndrome: responder rate difference from placebo (unlabelled line) (200 mg, 3-months, LOCF): 6.68%
PGIC Component: responder rate (200 mg, 3-months, LOCF): (38.13%)
PGIC Component: responder rate difference from placebo (unlabelled line) (200 mg, 3-months, LOCF): 13.19%
Pain Component: responder rate (200 mg, 3-months, LOCF): (39.90%)
Pain Component: responder rate difference from placebo (unlabelled line) (200 mg, 3-months, LOCF): 11.22%
SF36 PCS Component: responder rate (200 mg, 3-months, LOCF): (27.53%)
SF36 PCS Component: responder rate difference from placebo (unlabelled line) (200 mg, 3-months, LOCF): 2.09%
Composite Pain: m/n = # of responders/# of patients included (200 mg, 3-months, OC): 98/215
Composite Pain: responder rate (200 mg, 3-months, OC): (45.58%)
Composite Pain: responder rate difference from placebo (unlabelled line) (200 mg, 3-months, OC): 20.39%
Composite Syndrome: m/n = # of responders/# of patients included (200 mg, 3-months, OC): 55/215
Composite Syndrome: responder rate (200 mg, 3-months, OC): (25.58%)
Composite Syndrome: responder rate difference from placebo (unlabelled line) (200 mg, 3-months, OC): 12.22%
PGIC Component: m/n = # of responders/# of patients included (200 mg, 3-months, OC): 129/255
PGIC Component: responder rate (200 mg, 3-months, OC): (50.59%)
PGIC Component: responder rate difference from placebo (unlabelled line) (200 mg, 3-months, OC): 18.76%
Pain Component: m/n = # of responders/# of patients included (200 mg, 3-months, OC): 119/217
Pain Component: responder rate (200 mg, 3-months, OC): (54.84%)
Pain Component: responder rate difference from placebo (unlabelled line) (200 mg, 3-months, OC): 16.44%
SF36 PCS Component: m/n = # of responders/# of patients included (200 mg, 3-months, OC): 89/255
SF36 PCS Component: responder rate (200 mg, 3-months, OC): (34.90%)
SF36 PCS Component: responder rate difference from placebo (unlabelled line) (200 mg, 3-months, OC): 5.24%
time-weighted average (AUC) of SF-36 PCS Scores, Difference from Placebo (200 mg, LOCF): 8.36
time-weighted average (AUC) of SF-36 PCS Scores, LS Mean (200 mg, LOCF): 420.38
time-weighted average (AUC) of SF-36 PCS Scores, Difference from Placebo (200 mg, OC): 11.17
time-weighted average (AUC) of SF-36 PCS Scores, LS Mean (200 mg, OC): 429.46
Mean Change from Baseline in GHP SF-36 domain score (200 mg, Tx 15, Observed Cohort): 6.6
Mean Change from Baseline in PAIN SF-36 domain score (200 mg, Tx 15, Observed Cohort): 18.2
Mean Change from Baseline in PCS Score at Tx 15 (200 mg, Tx 15, Observed Cohort): 3.9
Mean Change from Baseline in PFI SF-36 domain score (200 mg, Tx 15, Observed Cohort): 6.9
Mean Change from Baseline in ROLP SF-36 domain score (200 mg, Tx 15, Observed Cohort): 14.9
time-weighted average (AUC) of SF-36 PCS Scores, Mean (200 mg, LOCF): 418.97
time-weighted average (AUC) of SF-36 PCS Scores, Median (200 mg, LOCF): 419.2
time-weighted average (AUC) of SF-36 PCS Scores, Mean (200 mg, OC): 428.24
time-weighted average (AUC) of SF-36 PCS Scores, Median (200 mg, OC): 428.4
